Where two headings read alike, the source gives them in different places.

The subject of assay [1] is HAdV-37 virions (infection of HCE cells). To be noted: cited from earlier work.
Another assay deals with HAdV-37 fiber knob (Human adenovirus D37, UniProt Q64823). As to the kind of experiment: Surface plasmon resonance (SPR), immobilized HAdV-37 fiber knobs. The class given is binding, human adenovirus HAdV-37. To be noted: for binding mode with HAdV-37 fiber knob: SPR. As to the method:
Finally, ME0385, ME0386 and ME0322 were investigated in surface plasmon resonance (SPR) experiments and their respective binding affinities (Kds) for immobilized HAdV-37 fiber knobs were determined (see below for further details). […] It is also worth noting the influence of the HAdV-37 fiber knob construct on the Kd values.
The kinetic measurements were performed using a surface plasmon resonance BIAcore T100 instrument. HAdV-37 knob proteins were covalently coupled to a CMS sensorchip using the amine coupling kit (GE Healthcare), to a concentration of 14-15 ng/mm^2 (˜15000RU). Binding of the trivalent sialic acid conjugates ME0322, ME0385 and ME0386 to the immobilized knob was performed in 10 mM HEPES, 0.15 M NaCl and 0.05% P20 pH 7.4 (1×HBS-EP+, GE Healthcare). The concentrations of trivalent sialic acid used were 400, 200, 100, 50 (twice), 25, 12.5 (twice), 6.25, 3.125, 1.56 and 0.78 μM. The binding affinities (Kds) were calculated using Biacore T100 evaluation software.

The test system of assay [2] is HAdV-37 virions (attachment to HCE cells). The conditions noted are these: reported in the art (background), cited from earlier work.
Assay [3] has the same test system. The assay is described as follows: Cell-binding assay: attachment of 35S-labeled HAdV-37 virions to HCE cells. It counts as cell-based. To be noted: read-out: IC50, preventing attachment of HAdV-37 virions to HCE cells. As to the method:
In order to investigate the efficiency of the newly synthesized compounds (ME0385, ME0386, ME0407, ME0408, ME0461, and ME0462) to prevent the attachment of HAdV-37 virions to HCE cells, cell-binding assays based on ^35S-labeled virions were performed. Based on previous studies ME0322, sialic acid and GD1a glycan were used as reference compounds (Nilsson et al N. Nat. Med. 2011, 17, 105 and Spjut et al Angew. Chem. Int. Ed. 2011, 50, 6519). The assays were carried out (see below for further details) essentially as previously described (Arnberg et al J. Virol. 2000, 74, 42 and Arnberg et al J. Virol. 2000, 74, 7691).
In brief, ^35S-labeled HAdV-37 virions were pre-incubated with or without the trivalent sialic acid derivatives, GD1a glycan and sialic acid at various concentrations. The mixtures were incubated with HCE cells and unbound virions were then washed away. Finally, the cell-associated radioactivity was counted by using a scintillation counter.
S-labeled HAdV-37 virions (5×10^8/well) were pre-incubated in binding buffer (50 μL; BB: Dulbecco's modified eagle's medium containing 1% BSA (Roche AB, Stockholm, Sweden) and HEPES (20 mM, EuroClone, Milan, Italy), pH 7.5) with or without the trivalent sialic acid derivatives, GD1a glycan or sialic acid at various concentrations (cf. FIG. 1a) in a 96-well microplate at +4° C. for 1 h. These mixtures were then added to HCE cells prepelleted (1×10^5/well) in a 96-well microplate. After re-suspension, the mixtures were incubated at +4° C. for 1 h. Finally, unbound virions were washed away with BB and the cell-associated radioactivity was counted by using a Wallac 1409 scintillation counter.

Assay [4] deals with HAdV-37 virions (infection of HCE cells). As to the kind of experiment: Infection assay: infection of HCE cells by HAdV-37 virions (immunofluorescence). The conditions noted are these: for IC50: Human adenovirus sp., HCE, 44 h of infection, immunofluorescence, read-out: IC50, preventing infection of HCE cells by HAdV-37 virions; for prevention of infection of HCE cells by HAdV-37 virions compared with ME0322: in words. The class given is cell-based. As to the method:
In order to confirm the results from the cell-binding assays and to further evaluate our set of compounds, infection experiments were performed (FIGS. 1b, 3a and 3b). The assays were carried out (see below for further details) essentially as previously described ((Arnberg et al. J. Virol. 2000, 74, 42 and Arnberg et al. J. Virol. 2000, 74, 7691)).
In brief, unlabeled virions were pre-incubated with or without the trivalent sialic acid derivatives, GD1a glycan or sialic acid at various concentrations. These mixtures were then added to HCE cells and incubated at +4° C. Unbound virions were washed away, the resulting mixtures were incubated at +37° C. and a synchronized infection—all virions enter the cells simultaneously—was then obtained. After 44 h of infection, the cells were rinsed, fixed, incubated with rabbit polyclonal anti-HAdV-37 antibodies prior to being washed and stained. Finally, the cells were washed and examined by immunofluorescence microscopy.
7×10^7 non-labeled virions/well in 48-well plates were pre-incubated in serum free growth media (2004), with or without the trivalent sialic acid derivatives, GD1a glycan or sialic acid at various concentrations (cf. FIG. 2B) at +4° C. After 1 h, the mixtures were transferred to new 48-well plates containing 1×10^5 adherent HCE cells/well and incubated at +4° C. After 1 h, unbound virions were washed away with serum free growth media and the resulting mixtures were incubated with growth media containing 1% fetal bovine serum (FBS) at +37° C. After 44 h of infection, the cells were rinsed in PBS, fixed with cold (−20° C.) 99% methanol for 10 min and incubated with rabbit polyclonal anti-HAdV-37 antibodies diluted 1:200 in PBS (pH 7.4) at room temperature. After 1 h, the cells were washed in PBS and stained with FITC-labeled swine anti-rabbit IgG antibodies (Dako-cytomation, Glostrup, Denmark) diluted 1:100 in PBS for 1 h at room temperature. Finally, the cells were washed in PBS and examined in an immunofluorescence microscope (Axiovert 25, Carl Zeiss, Germany; 10× magnification).

Setting [5] is: 35S-labeled virions pre-incubated with compound, +4° C., HCE cells.

Turning to `CC(=O)NC1C(O)CC(OCCCCCNc2c(NCCN(CCNc3c(NCCCCCOC4(C(=O)O)CC(O)C(NC(C)=O)C(C(O)C(O)CO)O4)c(=O)c3=O)CCNc3c(NCCCCCOC4(C(=O)O)CC(O)C(NC(C)=O)C(C(O)C(O)CO)O4)c(=O)c3=O)c(=O)c2=O)(C(=O)O)OC1C(O)C(O)CO` (centres unmarked) [ME0322], the IC50 in assay [1] (infection of HCE cells by HAdV-37, earlier estimate, read-out: half maximal inhibitory concentration, previously estimated) is 0.38 µM. For the same molecule, the “inhibiting infection of HCE cells by HAdV-37, compared with HSA-conjugate” value in assay [1] (reported in the art (background)) is “far more potent than the HSA-conjugate”. In addition, on HAdV-37 fiber knob, the “binding mode with HAdV-37 fiber knob” value is reported as “one-to-one binding mode”. For the same molecule, at HAdV-37 fiber knob (read-out: binding affinity (Kd) for immobilized HAdV-37 fiber knobs, BIAcore T100, HBS-EP+ pH 7.4), the Kd was determined as 126 µM. Further, the “potency compared with natural sialic acid monosaccharide” value in assay [2] (assay not specified) is reported as “four orders of magnitude more potent than the natural sialic acid monosaccharide”. Moreover, the “preventing binding of the virus, compared with 17-valent sialic acid-HSA conjugate” value in assay [2] is “as effective as 17-valent sialic acid-HSA conjugate”.

Regarding `CC(=O)NC1C(O)CC(OCCn2cc(CN(Cc3cn(CCOC4(C(=O)O)CC(O)C(NC(C)=O)C(C(O)C(O)CO)O4)nn3)Cc3cn(CCOC4(C(=O)O)CC(O)C(NC(C)=O)C(C(O)C(O)CO)O4)nn3)nn2)(C(=O)O)OC1C(O)C(O)CO` [ME0385, Tris ((1-(2-O-(5-N-acetamido-3,5-dideoxy-D-glycero-α-D-galacto-2-nonylopyranosylonic acid))-2-oxoethyl-1H-1,2,3-triazol-4-yl)methyl)amine], the IC50 is 0.107 µM in assay [3] (Human adenovirus sp., HCE) and 0.166 µM in assay [4]. The affinity at HAdV-37 fiber knob, expressed as Kd, was 76 µM. Also, the “binding mode with HAdV-37 fiber knob” value at HAdV-37 fiber knob is “one-to-one binding mode”.

Regarding `CC(=O)N[C@@H]1C(O)C[C@](OCCCn2cc(CN(Cc3cn(CCCO[C@@]4(C(=O)O)CC(O)[C@H](NC(C)=O)C(C(O)C(O)CO)O4)nn3)Cc3cn(CCCO[C@]4(C(=O)O)CC(O)[C@@H](NC(C)=O)C(C(O)C(O)CO)O4)nn3)nn2)(C(=O)O)OC1C(O)C(O)CO` (stereo partly drawn) [ME0386, Tris ((1-(2-O-(5-N-acetamido-3,5-dideoxy-D-glycero-α-D-galacto-2-nonylopyranosylonic acid))-3-oxopropyl-1H-1,2,3-triazol-4-yl)methyl)amine], the IC50 in assay [3] (Human adenovirus sp., HCE) stood at 0.04 µM. Also, the IC50 in assay [4] worked out at 0.118 µM. For the same molecule, at HAdV-37 fiber knob, the dissociation constant (Kd) worked out at 69 µM and the “binding mode with HAdV-37 fiber knob” value is recorded as “one-to-one binding mode”.

As for `CCC(=O)N[C@H]1[C@H]([C@H](O)[C@H](O)CO)O[C@@](OCCCn2cc(CN(Cc3cn(CCCO[C@]4(C(=O)O)C[C@H](O)[C@@H](NC(=O)CC)[C@H]([C@H](O)[C@H](O)CO)O4)nn3)Cc3cn(CCCO[C@]4(C(=O)O)C[C@H](O)[C@@H](NC(=O)CC)[C@H]([C@H](O)[C@H](O)CO)O4)nn3)nn2)(C(=O)O)C[C@@H]1O` [ME0407], the IC50 in assay [3] (setting [5]) is 23.4 µM.

Regarding `CC(=O)N[C@@H]1C(O)C[C@](OCc2cn(CCN(CCn3cc(CO[C@]4(C(=O)O)CC(O)[C@@H](NC(C)=O)C(C(O)C(O)CO)O4)nn3)CCn3cc(CO[C@]4(C(=O)O)CC(O)[C@@H](NC(C)=O)C(CO)(C(O)CO)O4)nn3)nn2)(C(=O)O)OC1C(O)C(O)CO` (stereo partly drawn) [ME0462, Tris ((4-(2-O-(5-N-acetamido-3,5-dideoxy-D-glycero-α-D-galacto-2-nonulopyranosylonic acid))-2-oxomethyl-1H-1,2,3-triazol-1-yl)ethyl)amine], the IC50 in assay [3] (Human adenovirus sp., HCE) was 0.0014 µM. In assay [4], the IC50 amounted to 0.0021 µM and the “prevention of infection of HCE cells by HAdV-37 virions compared with ME0322” value was “more efficiently than ME0322”. Further, the Kd at HAdV-37 fiber knob is 9.5 µM.

`CC(=O)N[C@H]1[C@H]([C@H](O)[C@H](O)CO)OC(O)(C(=O)O)C[C@@H]1O` (some centres unmarked) [sialic acid]: the IC50 in assay [3] (Human adenovirus sp., HCE) came to 1200 µM.

As to “Tris ((1-(2-O-(5-N-propanoylamido-3,5-dideoxy-D-glycero-α-D-galacto-2-nonylopyranosylonic acid))-2-oxoethyl-1H-1,2,3-triazol-4-yl)methyl)amine [ME0408]”, in assay [3] (setting [5]), the IC50 was 4.5 µM.

For the molecule “Tris ((4-(2-O-(5-N-acetamido-3,5-dideoxy-D-glycero-α-D-galacto-2-nonulopyranosylonic acid))-2-oxoethyl-1H-1,2,3-triazol-1-yl)ethyl)amine [ME0461]”, the IC50 in assay [3] (setting [5]) is 0.376 µM. Moreover, the “prevention of infection of HCE cells by HAdV-37 virions compared with ME0322” value in assay [4] is “more efficiently than ME0322”.

Values taken from patent US10011628B2, “Multivalent sialic acid derivatives” (priority 2013, dated 2018).
